In US10980835B2, “Arsenic trioxide for treatment of PIN1-associated disorders” (Beth Israel Deaconess Medical Center, Inc., priority 2016, dated 2021):

Columns and labels:
[1] = test system: TNBC 231 and 159 cells (breast TICs); assay: Serial mammosphere formation assay; type: cell-based, human; conditions: serial propagation M1-M4
Procedure: FIG. 22C is a graph showing that ATO and ATRA co-treatment dramatically reduces tumor growth.
(§1) To examine the effects of ATO and ATRA on TICs in TNBC, 231 and 159 cells were treated with ATO (1 μM), ATRA (10 μM) or their combination, followed by assaying the breast TIC-enriched CD24-CD44+ or ALDH+ population using fluorescence-activated cell sorting (FACS). […] To examine the effects of ATO and ATRA on self-renewal of breast TICs, different TNBC cells were treated with ATO, ATRA or their combination, followed by a serial mammosphere formation assay.
Breast TICs are notoriously resistant to cytotoxic chemotherapy drugs such as taxol, which is commonly used to treat TNBC. While taxol treatment kills non-TIC cancer cells, it is ineffective against TICs, leading to TIC-enriched taxol-resistant cells. […] Thus, the combination of ATO and ATRA inhibits the growth of taxol-resistant TNBCs. This raised the question of whether the combination of ATO and ATRA could inhibit tumor initiation and growth of breast TICs in vivo. Accordingly, the effects of ATO and ATRA combination therapy on tumor initiation of TNBCs were assayed using a limiting dilution assay in mice, a standard approach to determine tumor initiation.

[2] = test system: MDA-MB-231 breast cancer cell line; assay: Intracellular arsenic levels by ICP-Masspec; type: cell-based, human; conditions: MDA-MB-231 cells treated with ATRA, relative to control
Procedure: FIGS. 16A-C are a series of graphs showing that ATRA increases intracellular arsenic concentration measured by ICP-Masspec.
Intracellular arsenic levels were measured by ICP-Masspec in breast cancer cells lines treated with either ATRA, shRNA knockdown of AQP9, or overexpression of AQP9.

[3] = test system: triple negative breast cancer PDX; assay: Triple negative breast cancer patient derived xenograft (PDX) mouse model; type: in vivo
From the text: FIGS. 18A-D show the effect of ATO and ATRA on a triple negative breast cancer patient-derived xenograft (PDX) mouse model, where treatment was initiated two weeks after implantation. FIG. 18A is a graph showing that combination treatment with ATRA and ATO results in greater tumor growth inhibition than treatment with either ATRA or ATO, alone. FIG. 18B is image of the excised tumors corresponding to FIG. 18A. FIG. 18C is a graph depicting tumor volume corresponding to the tumors picture in FIG. 18B.
FIGS. 19A-C show the effect of ATO and ATRA on a triple negative breast cancer PDX mouse model, where treatment was initiated when the tumor volume reached to 250 mm^3. FIG. 19A is a graph showing that combination treatment with ATRA and ATO results in greater tumor growth inhibition than treatment with either ATRA or ATO, alone. FIG. 19B is image of the excised tumors corresponding to FIG. 19A. FIG. 19C is a graph depicting tumor volume corresponding to the tumors picture in FIG. 19B.
FIGS. 20A-D show the effect of ATO and ATRA on a triple negative breast cancer PDX mouse model, where treatment was initiated when the tumor volume reached to 300 mm^3. FIG. 20A is a graph showing that combination treatment with ATRA and ATO results in greater tumor growth inhibition than treatment with either ATRA or ATO, alone. FIG. 20B is image of the excised tumors corresponding to FIG. 20A. FIG. 20C is a graph depicting tumor volume corresponding to the tumors picture in FIG. 20B. FIG. 20D is a western blot depicting a decrease in Pin1 expression following treatment with either ATO, ATRA, or a combination of ATO and ATRA.
(§2) A PDX mouse model of triple negative breast cancer was treated with either ATO (2 mg/kg every other day), ATRA (5 mg 21 day slow releasing pellets), or a combination of both ATO (2 mg/kg every other day) and ATRA (5 mg 21 day slow releasing pellets). Treatment was initiated two weeks after implantation. Tumor growth was measured weekly for 7 weeks.
as §2, with “Furthermore, a PDX” for “A PDX”, “initiated when the tumor volume reached 250 mm^3.” for “initiated two weeks after implantation.”, “for 6” for “for 7”
as §2, with “Finally, a PDX” for “A PDX”, “initiated when the tumor volume reached 300 mm^3.” for “initiated two weeks after implantation.”, “for 6” for “for 7”, “weeks. […]” for “weeks.”

[4] = test system: Hs578t and SUM159 cells; assay: FACS quantification of ALDH+ cells; type: cell-based, human
From the text: (§3) FIG. 11 is a series of plots generated by fluorescence-activated cell sorting (FACS) and a corresponding graph that depicts the quantification of aldehyde dehydrogenase-positive (ALDH+) cells following treatment with ATRA, ATO, or a combination of ATRA and ATO. ALDH is tumor marker associated with breast cancer stem cells. The fraction of ALDH+ cells is decreased in Hs578T cells treated with ATRA+ATO, as compared to those treated with either ATRA or ATO, alone.
as §3, with “12” for “11”, “SUM159” for “Hs578T”
Two different human triple negative breast cancer cell lines (Hs578t and SUM159) were treated with ATRA, ATO, or a combination of ATRA and ATO. Fluorescence-activated cell sorting (FACS) was used to quantify the proportion of aldehyde dehydrogenase-positive (ALDH+) cells following treatment. […]

[5] = test system: Human triple negative breast cancer MBA-MB-231 cells; assay: Mouse orthotopic implantation model with MBA-MB-231 cells; type: in vivo; conditions: nude mice, ATO 2 mg/kg every other day, ATRA 5 mg 21 day pellets, 6 weeks
From the text: FIG. 17A is a graph showing that combination treatment with ATRA and ATO results in greater tumor growth inhibition than treatment with either ATRA or ATO, alone. FIG. 17B is image of the excised tumors corresponding to FIG. 17A. FIG. 17C is a graph depicting tumor volume corresponding to the tumors pictured in FIG. 17B.
Human triple negative breast cancer MBA-MB-231 cells were orthotopically implanted into nude mice. A week after tumor growth was notable, mice were randomly grouped and treated with either ATO (2 mg/kg every other day), ATRA (5 mg 21 day slow releasing pellets), or a combination of both ATO (2 mg/kg every other day) and ATRA (5 mg 21 day slow releasing pellets). Tumor growth was measured weekly for 6 weeks.

[6] = test system: 231 and 159 cells; assay: FACS of breast TIC-enriched CD24-CD44+ or ALDH+ population; type: cell-based, human
Procedure: as §1

[7] = molecular target: T1, Pin1 (Homo sapiens, UniProt Q13526); assay: Pin1 protein levels in triple negative breast cancer cell lines by immunoblotting; type: cell-based; conditions: SUM159, Hs578T and MBA-MB-231 cells
T1 construct: followed by assaying Pin1 levels using immunoblotting; endogenous in cells; host or cells: SUM159, Hs578T, MDA-MB-231 (printed MBA-MB-231)
T1 sequence (Q13526 whole entry): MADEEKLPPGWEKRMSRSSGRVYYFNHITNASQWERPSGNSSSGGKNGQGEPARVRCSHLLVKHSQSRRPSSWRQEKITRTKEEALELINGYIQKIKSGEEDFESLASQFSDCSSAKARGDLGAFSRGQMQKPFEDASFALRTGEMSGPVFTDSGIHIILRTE
From the text: FIG. 5 is a series of western blots and corresponding graphs of quantified protein expression depicting arsenic trioxide-induce Pin1 degradation in triple-negative breast cancer cell lines (SUM159, Hs578T, and MBA-MB-231).
FIG. 7 is a series of western blots and corresponding graphs of quantified protein expression levels showing that, in triple-negative breast cancer cell lines (SUM159 and Hs578T), arsenic trioxide-induced Pin1 degradation is blocked by the proteasome inhibitor, MG132.
FIG. 8 is a series of western blots and corresponding graphs of quantified protein expression levels showing that all-trans retinoic acid (ATRA) induces Pin1 degradation in triple-negative breast cancer cell lines (SUM159, Hs578T, and MBA-MB-231).
FIG. 9 is a series of western blots and corresponding graphs of quantified protein expression levels depicting decrease in Pin1 protein expression in triple-negative breast cancer cells (SUM159, Hs578T, and MBA-MB-231) following combination treatment with ATO and ATRA, as compared to treatment with either ATO or ATRA, alone. […]
Two different human triple negative breast cancer cell lines (SUM159 and Hs578T) were treated with different concentrations of ATO in the presence of the proteasome inhibitor MG132 or vehicle control DMSO. […] cells were collected and lysed and levels of Pin1 protein expression were quantified by immunoblotting. […]

## CC1=C(/C=C/C(C)=C/C=C/C(C)=C/C(=O)O)C(C)(C)CCC1 [ATRA, all-trans retinoic acid]
[1]
  Mammosphere formation efficiency: strongly impaired mammosphere formation efficiency at M2-3
[2]
  Intracellular arsenic concentration: increase intracellular arsenic concentrations relative to control
[3]; treatment initiated at 300 mm^3
  Pin1 levels in tumors: decreased
[3]; treatment initiated two weeks after implantation, 7 weeks
  Tumor growth: inhibited tumor growth
[3]; treatment initiated when tumor volume reached 250 mm^3, 6 weeks
  Tumor growth: inhibited tumor growth
[3]; treatment initiated when tumor volume reached 300 mm^3, 6 weeks
  Tumor growth: inhibited tumor growth
[4]
  Proportion of ALDH+ cells: decreased the proportion of ALDH+ cells
[5]
  Tumor growth: inhibited tumor growth
[6]
  Breast TIC-enriched CD24-CD44+ or ALDH+ population: significantly reduced breast TIC-enriched population
[7]
  Pin1 levels (degradation): induced Pin1 degradation in a dose-dependent manner
